{
  "source": "patent US8420144B2",
  "about": "“Kokumi-imparting agent, method of using, and compositions containing same” (Ajinomoto Co., Inc., priority 2005, dated 2013)",
  "key": {"[1]": {"assay": "Quantitative sensory evaluation test: kokumi-imparting activity of peptides combined with known calcium receptor activators or additives", "format": "in vivo, human", "conditions": "alone; for Intensity of kokumi: Aftertaste / Intensity of kokumi: First and middle taste: n=12, 0 control, 3 intense, 6 extremely intense", "procedure": "The intensity of the kokumi-imparting activity of each peptide having confirmed calcium receptor activation activity and a known calcium receptor activator used in combination was measured by a quantitative sensory evaluation test, performed as follows: Samples of γ-Glu-Cys-Gly (glutathione) or γ-Glu-Val-Gly (0.0001 to 1 g/dl), or these samples combined with a calcium receptor activator such as calcium lactate, protamine or polylysine, or GABA (addition concentration: 0.0001 to 1 g/dl) were added to distilled water containing sodium glutamate (0.05 g/dl), inosine monophosphate (0.05 g/dl), and sodium chloride (0.5 g/dl), and the intensity of the kokumi-imparting activity was measured. Sample solutions that became acidic after dissolution of the samples were adjusted to pH 6.8 to 7.2 with NaOH before use. Sensory evaluation scores were used to evaluate as follows: 0 points for the control sample, 3 points for intense activity (as intensity of 0.05 g/dl γ-Glu-Cys-Gly and 0.005 g/dl γ-Glu-Val-Gly), and 6 points for extremely intense activity (as twice intensity of 0.05 g/dl γ-Glu-Cys-Gly and 0.005 g/dl γ-Glu-Val-Gly), and the test was performed with n=12."}, "human CaSR": {"biological_target": "T1, human CaSR (Homo sapiens, UniProt P41180)", "T1 construct": "expressed in transfected cells; host or cells: HEK 293 cells, transient transfection of a CMV-promoter expression vector", "T1 sequence (P41180 20-1078)": "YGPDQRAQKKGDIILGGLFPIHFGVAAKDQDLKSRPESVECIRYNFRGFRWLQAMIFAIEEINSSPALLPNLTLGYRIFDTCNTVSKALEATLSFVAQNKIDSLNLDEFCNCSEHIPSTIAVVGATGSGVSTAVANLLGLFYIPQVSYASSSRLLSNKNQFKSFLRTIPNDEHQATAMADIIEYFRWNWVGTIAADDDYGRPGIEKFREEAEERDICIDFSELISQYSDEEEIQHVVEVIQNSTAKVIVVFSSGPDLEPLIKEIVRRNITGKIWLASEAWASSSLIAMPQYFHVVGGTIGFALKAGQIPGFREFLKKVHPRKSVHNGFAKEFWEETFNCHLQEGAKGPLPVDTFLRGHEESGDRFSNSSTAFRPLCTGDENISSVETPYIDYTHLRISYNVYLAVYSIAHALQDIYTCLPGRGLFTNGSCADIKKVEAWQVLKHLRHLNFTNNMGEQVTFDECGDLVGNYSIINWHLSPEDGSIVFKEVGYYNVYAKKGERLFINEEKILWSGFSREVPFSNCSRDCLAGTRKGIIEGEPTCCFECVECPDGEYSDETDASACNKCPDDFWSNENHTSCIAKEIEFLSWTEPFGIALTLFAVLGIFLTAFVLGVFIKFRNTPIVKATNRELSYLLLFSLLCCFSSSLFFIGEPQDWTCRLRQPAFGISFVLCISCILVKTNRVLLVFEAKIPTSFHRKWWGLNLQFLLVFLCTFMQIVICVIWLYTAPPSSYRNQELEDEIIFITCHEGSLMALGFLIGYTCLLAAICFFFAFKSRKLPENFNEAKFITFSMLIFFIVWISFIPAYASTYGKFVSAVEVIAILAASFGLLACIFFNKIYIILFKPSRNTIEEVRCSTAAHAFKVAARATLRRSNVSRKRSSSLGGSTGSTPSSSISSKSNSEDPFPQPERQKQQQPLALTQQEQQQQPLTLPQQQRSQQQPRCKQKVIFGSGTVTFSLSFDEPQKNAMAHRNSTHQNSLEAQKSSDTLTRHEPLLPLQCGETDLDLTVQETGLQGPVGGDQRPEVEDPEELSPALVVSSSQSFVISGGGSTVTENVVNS", "assay": "Calcium receptor (CaSR) activation activity: calcium imaging in HEK 293 cells expressing human CaSR", "format": "cell-based", "conditions": "concentration giving 50% of the maximal activity; single values n = 1, others n = 2 or 3", "procedure": "Calcium receptor (CaSR) activation activity of peptides obtained in Examples 2, 3, and 5-12 were measured as follows. A cDNA of human CaSR obtained in Example 1 of WO2007/055393A1 was inserted into an expression vector for an animal cell having a CMV promoter, and the cDNA in the vector was introduced into HEK 293 cells, which had multiplied to 70% of the maximal cell density, using FuGINE6 (Roche Ltd.). After culturing the cells for 4 to 48 hours, 0.6-1.0×10^5 of cells/well were disseminated into a 96-well plate, subsequently, the cells were cultured for one day, and then stained using Calcium 3 Assay Kit. The presence or absence of a calcium receptor activation activity of each peptide was confirmed by a calcium imaging method using FLEXSTATION (Molecular Devices Inc., instruction manual). Furthermore, the concentration of each peptide giving 50% of the maximal activity (EC50) was calculated using a dose characteristic curve."}},
  "note": "Numbered stars: 1 amine (or outer) side, 2 acyl side, 3 side chain; on linkers, the order of the positions; unused ones are H or OH. Square brackets hold non-standard residues; d marks the D form. Peptide text beside a SMILES is read from it. γGlu = O=C(O)[C@H](CCC(=O)[*:2])N[*:1]; Tle = CC(C)(C)[C@H](N)C(=O)O",
  "data": [
    {"compound": "CC(O)C(=O)[O-].CC(O)C(=O)[O-].[Ca+2]", "note": "(stereo not drawn) [Calcium lactate]", "values": [
      {"measurement": "Evaluation remarks", "setting": "[1]; 0.25 g/dl", "result": "Thickness"},
      {"measurement": "Intensity of kokumi: Aftertaste", "setting": "[1]; 0.25 g/dl", "result": 0.5, "unit": "points"},
      {"measurement": "Intensity of kokumi: First and middle taste", "setting": "[1]; 0.25 g/dl", "result": 0.5, "unit": "points"}
    ]},
    {"compound": "NCCCC(=O)O", "note": "[GABA]", "values": [
      {"measurement": "Evaluation remarks", "setting": "[1]; 0.025 g/dl", "result": "Thickness"},
      {"measurement": "Intensity of kokumi: Aftertaste", "setting": "[1]; 0.025 g/dl", "result": 0.5, "unit": "points"},
      {"measurement": "Intensity of kokumi: First and middle taste", "setting": "[1]; 0.025 g/dl", "result": 0.5, "unit": "points"}
    ]},
    {"compound": "CC[C@H](NC(=O)CC[C@H](N)C(=O)O)C(=O)OCC(=O)O", "note": "[γ-Glu-Abu-GlyA]", "values": [
      {"measurement": "EC50", "setting": "human CaSR", "result": "65 to 79", "unit": "nM"}
    ]},
    {"compound": "CC[C@H](NC(=O)CC[C@H](N)C(=O)O)C(=O)O[C@@H](C)C(=O)O", "note": "[γ-Glu-Abu-LacA]", "values": [
      {"measurement": "EC50", "setting": "human CaSR", "result": 102, "unit": "nM"}
    ]},
    {"compound": "CC(C)(NC(=O)CC[C@H](N)C(=O)O)C(=O)NCC(=O)O", "note": "[γ-Glu-Aib-Gly]", "values": [
      {"measurement": "EC50", "setting": "human CaSR", "result": "349 to 1170", "unit": "nM"}
    ]},
    {"compound": "N[C@@H](CCC(=O)NC1(C(=O)NCC(=O)O)CCCC1)C(=O)O", "note": "[γ-Glu-Cle-Gly]", "values": [
      {"measurement": "EC50", "setting": "human CaSR", "result": "500 to 1500", "unit": "nM"}
    ]},
    {"compound": "CC(C)(S)[C@H](NC(=O)CC[C@H](N)C(=O)O)C(=O)NCC(=O)O", "note": "[γ-Glu-Pen-Gly]", "values": [
      {"measurement": "EC50", "setting": "human CaSR", "result": "159 to 233", "unit": "nM"}
    ]},
    {"compound": "CC(C)[C@H](NC(=O)CC[C@H](N)C(=O)O)C(=O)OCC(=O)O", "note": "[γ-Glu-Val-GlyA]", "values": [
      {"measurement": "EC50", "setting": "human CaSR", "result": 140, "unit": "nM"}
    ]},
    {"compound": "CC(C)[C@H](NC(=O)CC[C@H](N)C(=O)O)C(=O)O[C@@H](C)C(=O)O", "note": "[γ-Glu-Val-LacA]", "values": [
      {"measurement": "EC50", "setting": "human CaSR", "result": 57, "unit": "nM"}
    ]},
    {"compound": "CC(C)(C)[C@H](NC(=O)CC[C@H](N)C(=O)O)C(=O)OCC(=O)O", "note": "[γ-Glu-t-Leu-GlyA]", "values": [
      {"measurement": "EC50", "setting": "human CaSR", "result": 50, "unit": "nM"}
    ]},
    {"compound": "CC(C)(C)[C@H](NC(=O)CC[C@H](N)C(=O)O)C(=O)NCC(=O)O", "note": "[γ-Glu-t-Leu-Gly] (γGlu-[Tle]-Gly-OH)", "values": [
      {"measurement": "EC50", "setting": "human CaSR", "result": "43 to 77", "unit": "nM"}
    ]},
    {"compound": "C[C@H](OC(=O)[C@@H](NC(=O)CC[C@H](N)C(=O)O)C(C)(C)C)C(=O)O", "note": "[γ-Glu-t-Leu-LacA]", "values": [
      {"measurement": "EC50", "setting": "human CaSR", "result": 38, "unit": "nM"}
    ]},
    {"compound": "Polylysine", "values": [
      {"measurement": "Evaluation remarks", "setting": "[1]; 0.001 g/dl", "result": "Thickness"},
      {"measurement": "Intensity of kokumi: Aftertaste", "setting": "[1]; 0.001 g/dl", "result": 0.5, "unit": "points"},
      {"measurement": "Intensity of kokumi: First and middle taste", "setting": "[1]; 0.001 g/dl", "result": 0.5, "unit": "points"}
    ]},
    {"compound": "Protamine", "values": [
      {"measurement": "Intensity of kokumi: Aftertaste", "setting": "[1]; 0.005 g/dl", "result": 1.0, "unit": "points"},
      {"measurement": "Intensity of kokumi: First and middle taste", "setting": "[1]; 0.005 g/dl", "result": 1.5, "unit": "points"}
    ]}
  ]
}
